Literature values, collected in US20070104771A1, “Transdermal galantamine delivery system” (priority 2005, published 2007).

## COc1ccc2c3c1OC1CC(O)C=CC31CCN(C)C2 (stereo not shown) [galantamine, 4a, 5,9, 10, 11, 12-Hexahydro-3-methoxy-11-methyl-6H-benzofuro (3a, 3,2-ef) (2) benzazepin-6-ol]
  oral bioavailability: 90%
